From patent publication US20080139673A1, “POTENTIATION OF ANTIFUNGAL COMPOUNDS” (MethylGene Inc., priority 2006, published 2008)
Read-outs that look alike come from different tables or passages of the source.

Key:
HosB = settings: cited from earlier work
ScHOS2 deletion mutant = test: Serial dilution sensitivity of yeast deletion strain to antifungal agents; type: cell-based, S. cerevisiae; settings: FIGS. 4-12
From the text: (§1) Standard serial dilution techniques were used to determine sensitivity of yeast deletion strains to various antifungal agents.

ScRPD3 deletion mutant = test: as above; type: cell-based, S. cerevisiae; settings: FIG. 3
From the text: as §1

C. albicans = settings: cited from earlier work
Candida glabrata = settings: cited from earlier work
A. nidulans Hda1 enzyme = settings: cited from earlier work
[1] = tested on: WT/ScHOS2 and Δhos2/ScHOS2; test: MIC80 testing (CLSI M27-A2), complementation of Δhos2 by recombinant ScHos2p; type: cell-based, S. cerevisiae; settings: 72 hours, 30° C., FIG. 14
Method: Minimum inhibitory concentration (MIC) testing was performed according to CLSI M27-A2 method for yeast testing using CSM-URA medium (Complete Synthetic Medium minus Uracile) containing either 2% raffinose or 1% raffinose+1% galactose as the carbon source. Itraconazole concentrations ranged from […]. Log-phase cells grown in CSM-URA+2% raffinose or CSM-URA+1% raffinose+1% galactose were inoculated at 5×10^3 cells/ml. The MIC80 of itraconazole was determined after 72 hours growth at 30° C.

recombinant Hos2p.V5His6 = biological target: T1, recombinant Hos2p.V5His6 (Saccharomyces cerevisiae, UniProt P53096); test: HDAC assay with purified recombinant Hos2p.V5His6 fractions; type: biochemical, S. cerevisiae; settings: for IC50: read-out: IC50 (ug/ml)
T1 construct: YGL194C/HOS2 from S. cerevisiae (residues 1-452 upstream the stop codon); made in house; host or cells: S. cerevisiae BY4742 or isogenic Δhos2 strain carrying pYES2.1.HOS2.V5His6 #7, galactose-induced
T1 sequence (P53096 whole entry, the tested form may be a part): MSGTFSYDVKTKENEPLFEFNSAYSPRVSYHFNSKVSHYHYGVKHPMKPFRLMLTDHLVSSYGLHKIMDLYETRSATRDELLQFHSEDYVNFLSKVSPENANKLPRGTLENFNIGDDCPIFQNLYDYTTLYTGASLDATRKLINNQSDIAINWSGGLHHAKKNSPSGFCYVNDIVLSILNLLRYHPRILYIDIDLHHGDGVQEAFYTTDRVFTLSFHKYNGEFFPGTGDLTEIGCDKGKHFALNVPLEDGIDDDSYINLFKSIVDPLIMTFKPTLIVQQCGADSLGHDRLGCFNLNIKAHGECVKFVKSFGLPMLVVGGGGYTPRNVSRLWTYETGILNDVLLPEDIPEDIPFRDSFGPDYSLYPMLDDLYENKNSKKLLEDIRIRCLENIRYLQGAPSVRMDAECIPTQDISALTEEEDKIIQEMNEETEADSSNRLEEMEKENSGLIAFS
Method: The induction of Hos2p.V5His6 expression by galactose was performed using either glucose or raffinose as the carbon source (pYES2.1 TOPO TA Expression Kit Manual, Invitrogen, cat. # K4150-01), Cell lysates were prepared from spheroplasts that had been generated from strains BY4742/pYES2.1.HOS2.V5His6 # 7 and Δhos2/pYES2.1.HOS2.V5His6 #7 grown in the presence or in the absence of galactose. Spheroplasts were prepared from cells that were grown in YEPD (BY4742, Δhos2), SC-URA+2% glucose or raffinose or SC-URA+1% glucose or raffinose+1% galactose (BY4742/pYES2.1.HOS2.V5His6 # 7 and Δhos2/pYES2.1.HOS2.V5His6 #7) by the lyticase method of Franzusoff et al. (1991). The collection of fractions containing or not Hos2pV5His6 was performed by IMAC using the H is GraviTrap Affinity Columns (GE Healthcare cat. # 11-033-99). Binding buffer was as recommended by the manufacturer, whereas three different elution buffers were used sequentially: 20 mM sodium phosphate+500 mM NaCl+100 mM, 250 mM or 500 mM imidazole, pH 7.4. Fractions were further desalted using PD-10 (GE Healthcare, cat. # 17-0851-01) and NAP-5 (GE Healthcare, cat. # 17-0853-02) desalting columns. Fractions that were eluted with the three different buffers containing 100, 250 or 500 mM imidazole, pH 7.4 and desalted were assayed for HDAC activity (see below). Only the corresponding fractions containing significant intrinsic HDAC activity (20 mM sodium phosphate+500 mM NaCl+250 mM imidazole) were kept for further studies.
Fractions containing the recombinant Hos2p.V5His6 were incubated for 2 h with or without HDAC inhibitor (0-20 μg/ml). The HDAC activity that was specifically associated with the recombinant Hos2p.V5His6 expressed following galactose induction was determined assuming that
FluoHos2p.V5His6 specific=Fluo+galactose−Fluo−galactose
where Fluo+galactose=HDAC activity associated with all HDACs copurified along with Hos2p.V5His6 Fluo+glucose=HDAC activity associated with all HDACs copurified in the absence of Hos2p.V5His6

For `C[C@@H]1NC(=O)[C@H]2CCCN2C(=O)[C@H](CCCCCC(=O)[C@@H]2CO2)NC(=O)[C@@H](C)NC1=O` [HC toxin], the “sensitivity of the enzyme to the HDAC inhibitor” value (HosB) is listed as “highly resistant”.
For `C[C@@H]1[C@H](O)[C@@H](C)/C=C/C=C/C=C/C=C/C=C/C=C/C=C/[C@H](O[C@@H]2O[C@H](C)[C@@H](O)[C@H](N)[C@@H]2O)C[C@@H]2O[C@](O)(C[C@@H](O)C[C@@H](O)[C@H](O)CC[C@@H](O)C[C@@H](O)CC(=O)O[C@H]1C)C[C@H](O)[C@H]2C(=O)O` [Amphotericin B], the “hypersensitivity of ScHOS2 deletion mutant to antifungal agent” value (ScHOS2 deletion mutant) was “not hypersensitive”.
With `CN(C/C=C/C#CC(C)(C)C)Cc1cccc2ccccc12` [terbinazine] the “hypersensitivity of ScHOS2 deletion mutant to antifungal agent” value (ScHOS2 deletion mutant) was “not hypersensitive”.
For `C[C@@H](c1ncncc1F)[C@](O)(Cn1cncn1)c1ccc(F)cc1F` [voriconazole], the “hypersensitivity of ScHOS2 deletion mutant to antifungal agent” value (ScHOS2 deletion mutant) was “hypersensitive”.
For `CC(=O)N1CCN(c2ccc(OCC3COC(Cn4ccnc4)(c4ccc(Cl)cc4Cl)O3)cc2)CC1` (stereo not drawn) [ketoconazole], the “hypersensitivity of ScHOS2 deletion mutant to antifungal agent” value (ScHOS2 deletion mutant) was “hypersensitive” and the “hypersensitivity of ScRPD3 deletion mutant to antifungal agent” value (ScRPD3 deletion mutant) was “not hypersensitive”.
In the case of `CC(/C=C/C(=O)NO)=C\[C@@H](C)C(=O)c1ccc(N(C)C)cc1` [TSA, trichostatin A], the “ability to enhance the sensitivity to azole antifungal agents” value (C. albicans) is given as “able to enhance the sensitivity”, the “ability to enhance the sensitivity to azole antifungal agents” value (Candida glabrata) is given as “not found to enhance the sensitivity” and the “sensitivity of the enzyme to the HDAC inhibitor” value (A. nidulans Hda1 enzyme) is given as “highly sensitive”. The “sensitivity of the enzyme to the HDAC inhibitor” value (HosB) was “highly resistant”.
For `C[C@@H]([C@H](N)C(=O)N[C@H](C(=O)O)[C@H]1O[C@@H](n2ccc(=O)[nH]c2=O)[C@H](O)[C@@H]1O)[C@H](O)c1ccc(O)cn1` [nikkomycin], the “hypersensitivity of ScHOS2 deletion mutant to antifungal agent” value (ScHOS2 deletion mutant) was “not hypersensitive”.
For `CCC(C)n1ncn(-c2ccc(N3CCN(c4ccc(OCC5COC(Cn6cncn6)(c6ccc(Cl)cc6Cl)O5)cc4)CC3)cc2)c1=O` (stereo not drawn) [itraconazole], the “difference in sensitivity (MIC80) between WT/ScHOS2 and Δhos2/ScHOS2” value ([1]; expression of Hos2 induced by galactose) was 2 fold and the “difference in sensitivity (MIC80) between WT/ScHOS2 and Δhos2/ScHOS2” value ([1]; grown in the presence of raffinose) was 4 fold.
For `CC(Cc1ccc(C(C)(C)C)cc1)CN1C[C@@H](C)O[C@@H](C)C1` (stereo partly drawn) [fenpropimorph], the “hypersensitivity of ScHOS2 deletion mutant to antifungal agent” value (ScHOS2 deletion mutant) was “hypersensitive”.
For `Nc1nc(=O)[nH]cc1F` [5-fluorocytosine], the “hypersensitivity of ScHOS2 deletion mutant to antifungal agent” value (ScHOS2 deletion mutant) was “not hypersensitive”.
Compound `O=C(Cc1ccc(CCCCc2ccccc2)cc1)NO` [Compound 4] has an IC50 (recombinant Hos2p.V5His6; Hos2 from S. cerevisiae BY4742/HOS2.V5His6 grown in glucose (GAL1 repressed) or galactose (induced)) of about 14.1 µM, an IC50 (recombinant Hos2p.V5His6; Hos2 from S. cerevisiae BY4742/HOS2.V5His6 grown in raffinose (GAL1 repressed) or galactose (induced)) of about 10.6 µM and an inhibition at 5 µg/mL (recombinant Hos2p.V5His6; read-out: % inhibition at 5 μg/ml, Hos2 from S. cerevisiae BY4742/HOS2.V5His6 grown in glucose (GAL1 repressed) or galactose (induced), 5 μg/ml, 2 h) of 60.7%. For the same compound, the inhibition at 5 µg/mL (recombinant Hos2p.V5His6; read-out: % inhibition at 5 μg/ml, Hos2 from S. cerevisiae BY4742/HOS2.V5His6 grown in raffinose (GAL1 repressed) or galactose (induced), 5 μg/ml, 2 h) was 61.2%, the inhibition at 5 µg/mL (recombinant Hos2p.V5His6; read-out: % inhibition at 5 μg/ml, Hos2 from S. cerevisiae Δhos2/HOS2.V5His6 grown in glucose (GAL1 repressed) or galactose (induced), 5 μg/ml, 2 h) was 55.2% and the IC50 (recombinant Hos2p.V5His6; Hos2 from S. cerevisiae Δhos2/HOS2.V5His6 grown in glucose (GAL1 repressed) or galactose (induced)) was about 15.9 µM. It also gave an inhibition at 5 µg/mL (recombinant Hos2p.V5His6; read-out: inhibition of purified Hos2 protein, 5 ug/ml, summary of Table 1) of over 60%.
With `OC(Cn1cncn1)(Cn1cncn1)c1ccc(F)cc1F` [fluconazole] the “hypersensitivity of ScHOS2 deletion mutant to antifungal agent” value (ScHOS2 deletion mutant) was “hypersensitive” and the “hypersensitivity of ScRPD3 deletion mutant to antifungal agent” value (ScRPD3 deletion mutant) was “not hypersensitive”.
